Measurements taken from PubChem BioAssay AID624167 (Sanford-Burnham Center for Chemical Genomics, 2012).
The source made the active and inactive calls.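 Rule for the calls: active = mean IC50 for reducing PEG3 promoter reporter signal at or below a set limit, with IC50 above the limit in both counter screens; inactive = the rest, including counter screen hits.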

Key:
[1] = biological target: PEG-3 (UniProt Q6IN02); test: Peg3 promoter luciferase inhibitors, potency, dose response, cell-based, HeLa, CREF/GAPDH counter-screen panel (AID 624167); conditions: HeLa PEG-Prom luciferase reporter, overnight, CREF/GAPDH counter-screens, mean of runs
[2] = system: PEG-3; test: as above; conditions: HeLa PEG-Prom luciferase reporter, overnight, CREF/GAPDH counter-screens
[3] = run 1, dose range 1, individual replicate IC50 per panel
[4] = run 2, dose range 1, individual replicate IC50 per panel

Sequence of PEG-3 (UniProt Q6IN02) (Q6IN02 whole entry, looked up): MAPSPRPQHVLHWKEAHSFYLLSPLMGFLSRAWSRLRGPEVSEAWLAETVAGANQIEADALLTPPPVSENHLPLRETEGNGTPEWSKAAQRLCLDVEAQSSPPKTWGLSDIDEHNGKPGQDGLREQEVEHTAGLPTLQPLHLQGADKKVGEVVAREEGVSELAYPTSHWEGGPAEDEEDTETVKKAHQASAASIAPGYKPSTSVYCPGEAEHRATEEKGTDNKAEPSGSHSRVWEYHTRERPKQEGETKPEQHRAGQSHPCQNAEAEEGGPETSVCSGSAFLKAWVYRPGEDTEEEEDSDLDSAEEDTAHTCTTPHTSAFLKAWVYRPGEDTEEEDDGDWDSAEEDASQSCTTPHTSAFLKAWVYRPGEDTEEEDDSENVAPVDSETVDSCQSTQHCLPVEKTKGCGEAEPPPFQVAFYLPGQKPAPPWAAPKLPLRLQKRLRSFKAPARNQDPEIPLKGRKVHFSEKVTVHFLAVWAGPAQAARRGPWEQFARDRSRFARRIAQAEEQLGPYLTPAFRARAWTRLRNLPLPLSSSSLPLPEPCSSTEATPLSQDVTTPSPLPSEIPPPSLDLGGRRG

Row | Structure (SMILES) | IC50 [1] | IC50 [2, 3] | IC50 [2, 4]
1 | Cc1cccc(NC(=O)CSc2nc3ccccc3c3nc(CCc4c(C)n[nH]c4C)nn23)c1 | inactive | 27.9 µM | 37.7 µM
2 | c1ccc(-c2cc(-c3nc4ccccc4[nH]3)c3ccccc3n2)cc1 | inactive | 15.3 µM | 39.9 µM
3 | CN(C)C=NC(=O)c1[nH]c2ccc(Cl)cc2c1-c1ccccc1 | 18.9 µM | 18 µM | 19.9 µM
4 | CCCCCCC=C1CCC(CN2CCCC2)C1=O (stereo not given) | inactive | 35.6 µM | 29.6 µM
5 | CC(C)n1nc(C(=O)Oc2cc(Cl)ccc2Cl)c2ccccc2c1=O | inactive | 65.8 µM | > 100 µM
6 | COc1ccccc1N(C(=O)CCl)c1cn(C(C)=O)c2ccccc12 | inactive | 24.1 µM | 26.5 µM
7 | CCCCCCCCCCCCCCCC(O)C[N+](C)(C)CCO (stereo not given) | 13 µM | 17.7 µM | 8.35 µM
8 | CCN(CC)C(=O)c1ccc(NC(=O)Nc2ccccc2F)cc1 | 17.2 µM | 18.8 µM | 15.6 µM
9 | CCc1nc(Nc2ccc(N3CCN(C(C)=O)CC3)cc2)c2oc3ccccc3c2n1 | inactive | 28.1 µM | 94.9 µM
10 | C[C@@H](C(=O)Nc1ccc2c(c1)OCCO2)n1c(=O)[nH]c2ccccc2c1=O | inactive | 11.8 µM | > 100 µM
11 | O=C1/C(=C\c2cccc(O)c2O)SC(=S)N1Cc1ccccc1 | inactive | 14.1 µM | 30.1 µM
12 | Cc1cc(C)c(CN2CCN(CCCn3cnc(C(=O)Nc4ccc(C)c(C)c4)n3)CC2)c(C)c1 | 16.1 µM | 19 µM | 13.1 µM
13 | O=C(NC1=C(NC2CCS(=O)(=O)C2)C(=O)c2ccccc2C1=O)c1ccccc1 (stereo not given) | 18.9 µM | 19.1 µM | 18.7 µM
14 | CCn1c2ccccc2c2cc(NC(=O)C(C)OC(=O)c3ccc(NC(=O)CC#N)cc3)ccc21 (stereo not given) | inactive | 41.9 µM | 39.1 µM
15 | O=c1[nH]c(=S)[nH]c(O)c1/C=C1\C=Nc2ccccc21 | inactive | > 100 µM | 17.6 µM
16 | Cc1ccc(C)c(NP(=O)(Oc2ccccc2)Oc2ccccc2)c1 | inactive | 28.7 µM | 19.1 µM
17 | Oc1c(Cl)cc(Cl)c2cccnc12 | 12.3 µM | 17.9 µM | 6.75 µM
18 | CCOC(=O)c1c(NC(=O)COc2ccccc2F)sc2c1CC(C)(C)NC2(C)C | inactive | 17.6 µM | 35 µM
19 | O=C(c1cc(-c2cccs2)nn1-c1ccccc1)N1CCN(S(=O)(=O)c2ccccc2)CC1 | inactive | 8.84 µM | > 100 µM
20 | CCOC(=O)c1cccc(Nc2nc(-c3cccnc3)nc3ccccc23)c1 | 11.8 µM | 12.1 µM | 11.4 µM
21 | COc1ccc(S(=O)(=O)N2c3ccccc3OCC2c2ccccc2)cc1 (stereo not given) | > 100 µM (inactive) | > 100 µM | > 100 µM
22 | CN(C)CCc1cc2c(c3c1ccc1ccccc13)OCO2 | 14 µM | 16.9 µM | 11.2 µM

Row | Structure (SMILES) | IC50 [1] | IC50 [2, 3] | IC50 [2, 4]
23 | CC(C)N1CCc2c(sc(NC(=O)c3cc4cc([N+](=O)[O-])ccc4s3)c2C(N)=O)C1 | inactive | 22.5 µM | 17.6 µM
24 | COc1ccc(NC(=O)Nc2nc(C(N)C3CCCCC3)cs2)cc1 (stereo not given) | 20 µM | 17.9 µM | 22.1 µM
25 | Oc1[nH]c2ccc(Br)cc2c1N=NC(=S)Nc1ccc(F)cc1 | 19.3 µM | 10.5 µM | 28.1 µM
26 | COCOCCn1cc(CN2CCS(=O)(=O)N(Cc3ccc(-c4ccc(Cl)c(Cl)c4)cc3)C(C(C)C)C2=O)nn1 (stereo not given) | inactive | 34.9 µM | 18 µM
27 | C[C@@H]1[C@H]2[C@@H]3CC[C@@H](C3)[C@H]2CN[C@H]1c1cn(Cc2ccccc2)c2ccccc12 | inactive | 39 µM | 42.7 µM
28 | O=C(CCN1C(=O)/C(=C/c2ccc(F)cc2)SC1=S)N[C@@H](CO)Cc1ccccc1 | inactive | 12.1 µM | > 100 µM
29 | O=C(Nc1ccc(-c2nc3ccccc3o2)cc1)c1ccc(N2CCOCC2)c([N+](=O)[O-])c1 | > 100 µM (inactive) | > 100 µM | > 100 µM
30 | O=S(=O)(c1cccc(F)c1)N1CCN(c2nc(-c3cccnc3)nc3ccccc23)CC1 | 12.9 µM | 10.1 µM | 15.8 µM
31 | COc1ccc(C)cc1Nc1n[n+](-c2ccccc2)c(-c2ccc(N(C)C)cc2)s1 | inactive | 36.3 µM | 65.2 µM
32 | CC(C)CC(N)c1csc(NC(=O)Nc2ccccc2C(C)C)n1 (stereo not given) | 15.7 µM | 30.1 µM | 1.37 µM
33 | CN(C)S(=O)(=O)c1cccc(NC(=O)CSc2nc3c(cc2C#N)C(=O)CC(C)(C)C3)c1 | inactive | 21.6 µM | 19.6 µM
34 | CCCCNc1nc(=S)n(-c2ccccc2)c(C)c1C(C)=O | 17.3 µM | 22 µM | 12.6 µM
35 | CC(C)NC(=O)NC(=O)COC(=O)c1c2c(nc3ccccc13)CCC2 | inactive | 16.5 µM | 27.8 µM
36 | CCCN1CCc2c(sc(NC(=O)c3ccc(S(=O)(=O)N4CCN(C(=O)OCC)CC4)cc3)c2C(N)=O)C1 | inactive | 21.9 µM | 21.2 µM
37 | COc1ccc(C[C@H]2CN3C(=NC[C@@H]3Cc3ccc(O)cc3)N2C[C@H](C)NC(=O)c2ccc(C)c(Br)c2)cc1 | inactive | 22.7 µM | 20.8 µM
38 | CC(C)(c1ccccc1)c1ccc(OCC(O)CNC2CCN(Cc3ccccc3)CC2)cc1 (stereo not given) | 15.7 µM | 21.9 µM | 9.42 µM
39 | c1cncc(-c2nc(NCC3COc4ccccc4O3)c3ccccc3n2)c1 (stereo not given) | inactive | 20.1 µM | 38.6 µM
40 | O=Cc1cn(Cc2ccc(Br)cc2)c2ccccc12 | inactive | 43.8 µM | > 100 µM
41 | COc1ccc(C2c3ccc4ccccc4c3Oc3ncn(CCCO)c(=N)c32)cc1 (stereo not given) | 19.9 µM | 22.8 µM | 17 µM
42 | CCc1cccc(CC)c1NC(=S)NCCc1c(C)[nH]c2ccc(C)cc12 | inactive | 29.6 µM | 13.8 µM
43 | O=C(NC(c1ccc(F)cc1)c1ccc2ccccc2n1)C1CCN(Cc2cccc(C(F)(F)F)c2)CC1 (stereo not given) | 12.1 µM | 16.2 µM | 7.91 µM
44 | COc1ccc2sc3cccc(NCCN(C)C)c3c(=O)c2c1 | inactive | 21.6 µM | > 100 µM

Row | Structure (SMILES) | IC50 [1] | IC50 [2, 3] | IC50 [2, 4]
45 | O=C1NC2C(=CC(O)C(O)C2O)c2cc3c(c(O)c21)OCO3 (stereo not given) | 0.293 µM | 0.293 µM | < 0.2 µM
46 | COc1ccc(-n2ncc3c(N(C)C4CCCCC4)ncnc32)cc1 | inactive | 26.5 µM | 44 µM
47 | CCN(CC)CCn1c2ccccc2c2cnc(N)c(C#N)c21 | 12.1 µM | 11.3 µM | 12.9 µM
48 | Cn1c(=O)c(C(=O)CCl)c(N)n(Cc2ccccc2)c1=O | inactive | 28.6 µM | 13.2 µM
49 | CC[C@@H](O)C[C@H]1CCC[C@@]2(C[C@@H]3OC(=O)/C=C/[C@@](C)(O)[C@@H](O)[C@H](C)[C@@H](O)[C@H](OC4CCC(N(C)C)C(C)O4)[C@@H](O)[C@](C)(O)CCCCC/C=C/[C@@H]4CC(C)(C)O[C@@]4(O)C[C@H](O2)[C@H]3C)O1 (stereo not given in full) | 15.8 µM | 18.2 µM | 13.4 µM
50 | CN1OC[C@@H]2CN[C@H](c3ccc(-c4cc5ccccc5o4)cc3)C[C@@H]21 | 18.8 µM | 24.9 µM | 12.6 µM
51 | CCN(CC)C(=O)Cn1cc(/C=C2\C(=O)NC(=O)N(c3ccccc3F)C2=O)c2ccccc21 | 14 µM | 14.9 µM | 13.1 µM
52 | O=C(O)CN1C(=O)/C(=C\c2ccccc2OCc2ccc(Cl)cc2Cl)SC1=S | 16.9 µM | 16.6 µM | 17.2 µM
53 | CC(C)(C)n1nnnc1C(CCc1ccccc1)N1CCC(n2c(=O)[nH]c3ccccc32)CC1 (stereo not given) | inactive | 18.3 µM | 24.7 µM
54 | N=c1c2c(-c3ccccc3)c(-c3ccccc3)n(Cc3ccccc3)c2ncn1CCO | 14.7 µM | 18.8 µM | 10.6 µM
55 | COc1cccc(CN(C)C(=O)c2cc(-c3cccs3)nc3ccccc23)c1 | inactive | 24.7 µM | 30.8 µM
56 | COc1ccccc1NC(=S)NC1CCCCCCCCCCC1 | inactive | 31.2 µM | 42.3 µM
57 | O=C(O)c1ccc(N/N=C/c2ccc(OC(=O)c3ccccc3Cl)cc2)cc1 | inactive | 3.06 µM | 78.5 µM
58 | O=C(CN1CCN(Cc2ccccc2Cl)CC1)N=Nc1c(O)[nH]c2ccccc12 | inactive | 5.23 µM | > 100 µM
59 | CN1CCC(N(C)C(=O)/C=C/c2cn(-c3ccccc3)nc2-c2cccs2)CC1 | 19 µM | 18.4 µM | 19.7 µM
60 | N=c1n(CCN2CCCC2)c2ccccc2n1CC(O)c1ccc(Cl)c(Cl)c1 (stereo not given) | 13.4 µM | 17.7 µM | 9.03 µM
61 | CN1CCN(c2ccc(NC(=O)N3CCc4ccccc43)cc2)CC1 | inactive | 15 µM | 38.8 µM
62 | CN(C)CCCN(C(=O)c1ccc(S(=O)(=O)N(C)Cc2ccccc2)cc1)c1nc2cc3c(cc2s1)OCO3 | 16.4 µM | 19.3 µM | 13.6 µM
63 | CCc1nccn1C(=O)c1cnn2c(C(F)F)cc(-c3ccc(C)cc3)nc12 | 17.2 µM | 18.7 µM | 15.6 µM
64 | CCc1ccc(OCCNc2cc(N3CCNC(C)C3)ccc2[N+](=O)[O-])cc1 (stereo not given) | 12.7 µM | 16.3 µM | 8.98 µM
65 | CCn1c(C)cc(C(=O)COC(=O)c2ccccc2[N+](=O)[O-])c1C | 18.8 µM | 35.8 µM | 1.77 µM
